The values that follow come from US5002948A, “3-[4-[4-substituted-1-piperazinyl]-1-butyl]-1H-2,3-dihydroindoles” (H. Lundbeck A/S, priority 1988, dated 1991).

SMILES strings stand for the structures.

In the first experiment the target is T1, serotonin 5-HT1A receptors (Rattus norvegicus, UniProt P19327).
T1 construct: membranes from rat brain minus cerebellum; from tissue; host or cells: brain minus cerebellum of male Wistar (Mol:Wist) rats, membranes
T1 sequence (P19327 1-422): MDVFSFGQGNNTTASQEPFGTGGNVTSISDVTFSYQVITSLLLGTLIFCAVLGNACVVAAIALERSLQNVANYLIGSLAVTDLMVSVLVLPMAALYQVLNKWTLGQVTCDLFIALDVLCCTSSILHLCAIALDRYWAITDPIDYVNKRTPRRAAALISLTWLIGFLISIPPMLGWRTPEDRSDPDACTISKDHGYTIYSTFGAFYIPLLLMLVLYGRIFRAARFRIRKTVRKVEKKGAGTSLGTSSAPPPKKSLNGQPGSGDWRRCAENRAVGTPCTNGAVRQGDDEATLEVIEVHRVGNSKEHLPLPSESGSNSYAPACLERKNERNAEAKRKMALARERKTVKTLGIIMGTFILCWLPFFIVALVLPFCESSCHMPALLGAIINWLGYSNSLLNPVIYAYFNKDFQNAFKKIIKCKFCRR
Description: Inhibition of 3H-8-OHDPAT binding to serotonin 5-HT1A receptors in rat brain in vitro. To be noted: 3H-8-OHDPAT 1 nM, rat brain membranes minus cerebellum, 37° C., 15 min; read-out: IC50 (3H 8-OH DPAT binding). On the procedure:
INHIBITION OF ^3 H-8-OHDPAT BINDING TO SEROTONIN 5-HT1A RECEPTORS IN A RAT BRAIN IN VITRO
By this method the inhibition by drugs of the binding of ^3 H-8-OHDPAT (1 nM) to serotonin 5-HT1A receptors in membranes from rat brain minus cerebellum is determined in vitro.
Male Wistar (Mol:Wist) rats (125-250 g) are sacrificed and the brain is dissected and weighed. The brain tissue minus cerebellum is homogenized (Ultra Turrax, 20 sec) in 10 ml of ice cold 50 mM Tris buffer pH 8.0 (at 25° C.) containing 120 mM NaCl, 4 mM CaCl2 and 4 mM MgCl2. The homogenate is centrifuged at 20,000 g for 10 min at 4° C. The pellet is homogenized in 10 ml of buffer and incubated at 37° C. for 10 min. The homogenate is centrifuged as above and the pellet is homogenized in 100 vol (w/v) ice cold buffer containing 10 μ M of parglyine.
Incubation tubes kept on ice in triplicate receive 100 μl of drug solution in water (or water for total binding) and 1000 μ l of tissue suspension (final tissue content corresponds to 10 mg original tissue). The binding experiment is initiated by addition of 100 μ l of ^3 H-8-OHDPAT (final concentration 1 nM) and by placing the tubes in a 37° C. water bath. After incubation for 15 min the samples are filtered under vacuum (0-50 mBar) through Whatman GF/F filters ([…]). The tubes are rinsed with 5 ml ice cold 0.9% NaCl which are then poured on the filters. Thereafter, the filters are washed with 2×5 ml 0.9% NaCl. The filters are placed in counting vials and 4 ml of appropriate scintillation fluid (e.g. Picofluor™15) are added. After shaking for 1 h and storage 2 h in the dark the content of radioactivity is determined by liquid scintillation counting. Specific binding is obtained by subtracting the nonspecific binding in the presence of 10 μ M of 5-HT.
For determination of the inhibition of binding five concentrations of drugs covering 3 decades are used.
The IC50 -value is determined as the concentration, at which the binding is 50% of the total binding in control samples minus the nonspecific binding in the presence of 10 μM of 5-HT.
^3 H-8-OHDPAT from Amersham International plc. England. Specific activity approximately 200 Ci/mmol).
With `c1ccc2c(c1)NCC2CCCCN1CCN(c2cccc3c2OCCO3)CC1` (single isomer, unassigned; (+)) [Compound 7c, (+)-3-[4-[4-(1,4-benzodioxan-5-yl)-1-piperazinyl]-1-butyl]-1H-2,3-dihydroindole], the 50% inhibitory concentration (IC50) (in general, the concentration that gives 50% inhibition) worked out at 3.5 nM.
On the same count and under the same terms, in the case of `c1ccc2c(c1)NCC2CCCCN1CCN(c2cccc3c2OCCO3)CC1` (single isomer, unassigned; (-)) [Compound 7d, (-)-b 3-[4-[4-(1,4-benzodioxan-5-yl)-1-piperazinyl]-1-butyl]-1H-2,3-dihydroindole] it was 3.1 nM; in that of `COc1ccccc1N1CCN(CCCCc2c[nH]c3ccc(F)cc23)CC1` [Compound 1a, 5-Fluoro-3-[4-[4-(2-methoxyphenyl)-1-piperazinyl]-1-butyl]-1 H-indole], 11 nM.
`COc1ccccc1N1CCN(CCCCc2c[nH]c3cc(Cl)ccc23)CC1` [Compound 1b, 6-Chloro-3-[4-[4-(2-methoxyphenyl)-1-piperazinyl]-1-butyl]-1H-indole]: the IC50 stood at 10 nM.
Still for that read-out and setting: as for `COc1ccccc1N1CCN(CCCCc2c[nH]c3ccccc23)CC1` [Compound 2a, 3-[4[4-(2-methoxyphenyl)-1-piperazinyl]-1-butyl]-1H-indole], the figure is 17 nM.
On the same count and under the same terms, in the case of `c1cc2c(c(N3CCN(CCCCc4c[nH]c5ccccc45)CC3)c1)OCC2` [Compound 2b, 3-[4-[4-(2,3-dihydro-7-benzofuranyl)-1-piperazinyl]-1-butyl]-1H-indole] it was 14 nM; in that of `c1cc2c(c(N3CCN(CCCCc4c[nH]c5ccccc45)CC3)c1)OCCO2` [Compound 2c, 3-[4-[4-(1,4-benzodioxan-5-yl)-1-piperazinyl]-1-butyl]-1H-indole], 5.7 nM.
On to `Fc1ccc2[nH]cc(CCCCN3CCN(c4cccc5c4OCCO5)CC3)c2c1` [Compound 2d, 3-[4-[4-(1,4-benzodioxan-5-yl)-1-piperazinyl]-1-butyl]-5-fluoro-1H-indole], for which the IC50 was 3.7 nM.
Consider `Fc1ccc2[nH]cc(CCCCN3CCN(c4cccc5c4OCC5)CC3)c2c1` [Compound 2e], for which the IC50 was 15 nM.
Regarding `CSc1ccccc1N1CCN(CCCCC2CNc3ccccc32)CC1` (stereo not shown) [Compound 3b, 3-[4-[4-(2-methylthiophenyl)-1-piperazinyl]-1-butyl]-1H-2,3-dihydroindole], the IC50 was 14 nM.
For `CC(C)Oc1ccccc1N1CCN(CCCCC2CNc3ccccc32)CC1` (stereo not shown) [Compound 3d, 3-[4-[4-(2-isopropyloxyphenyl)-1-piperazinyl]-1-butyl]-1H-2,3-dihydroindole], the IC50 came out at 17 nM.
On the same count and under the same terms, in the case of `COc1ccccc1N1CCN(CCCCC2CNc3ccc(Cl)cc32)CC1` (stereo not shown) [Compound 3e, 5-chloro-3-[4-[4-(2-methoxyphenyl)-1-piperazinyl]-1-butyl]-1H-2,3-dihydroindole] it was 9.2 nM.
Consider `COc1ccccc1N1CCN(CCCCC2CNc3cc(Cl)ccc32)CC1` (stereo not shown) [Compound 3f, 6-chloro-3-[4-[4-(2-methoxyphenyl)-1-piperazinyl]-1-butyl]-1H-2,3-dihydroindole], for which the IC50 worked out at 5.8 nM.
With `COc1ccccc1N1CCN(CCCCC2CNc3ccc(F)cc32)CC1` (stereo not shown) [Compound 3g, 5-fluoro-3-[4-[4-(2-methoxyphenyl)-1-piperazinyl]-1-butyl]-1H-2,3-dihydroindole], the IC50 turned out to be 17 nM.
The same measure, in the same setting: in the case of `COc1cccc(N2CCN(CCCCC3CNc4ccccc43)CC2)c1OC` (stereo not shown) [Compound 3h, 3-[4-[4-(2,3-dimethoxyphenyl)-1-piperazinyl]-1-butyl]-1H-2,3-dihydroindole] it was 90 nM; in that of `Clc1ccc2c(c1)C(CCCCN1CCN(c3cccc4c3OCCO4)CC1)CN2` (stereo not shown) [Compound 3k, 3-[4-[4-(1,4-benzodioxan-5-yl)-1-piperazinyl]-1-butyl]-5-chloro-1H-2,3-dihydroindole], 7.6 nM.
For `Fc1ccc2c(c1)C(CCCCN1CCN(c3cccc4c3OCCO4)CC1)CN2` (stereo not shown) [Compound 3l, 3-[4-[4-(1,4-benzodioxan-5-yl)-1-piperazinyl]-1-butyl]-5-fluoro-1H-2,3-dihydroindole], the IC50 amounted to 4.4 nM.
The same measure, in the same setting: in the case of `Fc1ccc2c(c1)C(CCCCN1CCN(c3cccc4c3OCC4)CC1)CN2` (stereo not shown) [Compound 3m, 3-[4-[4-(2,3-dihydro-7-benzofuranyl)-1-piperazinyl]-1-butyl]-5-fluoro-1H-2,3-dihydroindole] it was 5.7 nM; in that of `Oc1ccccc1N1CCN(CCCCC2CNc3ccccc32)CC1` (stereo not shown) [Compound 4a, 3-[4-[4-(2-hydroxyphenyl)-1-piperazinyl]-1-butyl]-1H-2,3-dihydroindole], 17 nM.
On the same count and under the same terms, as for `COc1ccccc1N1CCN(CCCCC2CN(C(C)=O)c3ccccc32)CC1` (stereo not shown) [Compound 5a, 1-Acetyl-3-[4-[4-(2-methoxyphenyl)-1-piperazinyl]-1-butyl]-1H-2,3-dihydroindole], the figure is 35 nM; as for `COc1ccccc1N1CCN(CCCCC2CN(C)c3ccccc32)CC1` (stereo not shown) [Compound 6a, 3-[4-[4-(2-methoxyphenyl)-1-piperazinyl]-1-butyl]-1-methyl-1H-2,3-dihydroindole], 43 nM; as for `COc1ccccc1N1CCN(CCCCC2C(=O)Nc3ccccc32)CC1` (stereo not shown) [Compound 8a, 3-[4-[4-(2-methoxyphenyl)-1-piperazinyl]-1-butyl]-1H-2,3-dihydroindol-2-on], 51 nM.
Take `COc1ccccc1N1CCN(CCCCc2n[nH]c3ccc(C(F)(F)F)cc23)CC1` [Compound 9a, 3-[4-[4-(2-methoxyphenyl)-1-piperazinyl]-1-butyl]-5-trifluoromethyl-1H-indazole]: the IC50 was found to be 8.6 nM.

In a further experiment the target is T2, 5-HT1A (Rattus norvegicus, UniProt P19327).
T2 sequence (P19327 1-422): T1 sequence (P19327 1-422)
Description: Inhibition of 5-methoxy-N,N-dimethyltryptamine (5-MeODMT) induced 5-HT syndrome in rats. The class given is in vivo, Male Wistar rats. To be noted: rat, sc. On the set-up: Male Wistar rats (Mol:Wist) weighing 170-240 g are used; from tissue; host or cells: whole living animal, male Wistar rats (Mol:Wist), s.c. dosing. The source says: INHIBITION OF 5-METHOXY-N,N-[…] INDUCED 5-HT SYNDROME IN RATS
The so-called 5-HT syndrome is a characteristic behaviour pattern which is induced by 5-HT agonists with effects on 5-HT, possibly 5-HT1A receptors, although lack of specific antagonists make it difficult to evaluate specificity (Smith, L. M. and S. J. Peroutka, Pharmacol. Biochem. & Behaviour 24, 1513-1519, 1986; Tricklebank, M. et al., Eur. J. Pharmacol. 117, 15-24, 1985).
Male Wistar rats (Mol:Wist) weighing 170-240 g are used. Test substrate is injected subcutaneously 30 min. before 5-methoxy-N,N-dimethyltryptamine 5 mg/kg, s.c. Four rats are used for each dose. A control group pretreated with saline is included each test day. Ten, 15 and 20 min later the rats are observed for presence of serotonin (5-HT) syndrome: (1) forepaw treading ("piano playing"), (2) head weaving and (3) hindleg abduction. Further, flat motility is scored. Each part of the syndrome is scored as follows: marked effect (score 2), weak syndrome (score 1) and no effect (score 0). The scores of the three observation times are added. Thus the maximum obtainable score for four rats is 24. The effect of the test substance is expressed as per cent inhibition relative to the control group.
The per cent inhibition of the piano playing syndrome is used as the response, and ED50 values are calculated by log-prohibit analysis.
On to `CC1(C)CC(=O)N(CCCCN2CCN(c3ncccn3)CC2)C(=O)C1` [gepirone, reference compound], for which the ED50 – broadly, the dose that gives a 50% effect, or the effect in half of the subjects – amounted to 32 µmol/kg.

The next experiment deals with T2, 5-HT1A. Description: Generalization to discriminative stimulus properties induced by 8-OHDPAT in rats (agonism). In kind it is in vivo, Male Wistar rats. To be noted: rat, sc, read-out: ED50, 8-OH DPAT cue agonism. On the set-up: from tissue; host or cells: whole living animal, male Wistar rats, s.c. dosing. From the text: GENERALIZATION TO DISCRIMINATIVE STIMULUS PROPERTIES INDUCED BY 8-OHDPAT IN RATS.
This test model is used to determine the agonist effects of a test compound on 5-HT1A receptors in vivo. A related method is described by Tricklebank, M. D., J. Neill, E. J. Kidd and J. R. Fozard, Eur. J. Pharmacol. 133, 37-56, 1987; Arnt, J., Pharmacology & Toxicology 64, 165-172, 1989.
The procedure is the same as for the antagonism test mentioned above, except that the test compound is substituted for 8-OHDPAT and injected s.c. usually 30 minutes or 45 minutes respectively before beginning of the test.
The per cent drug response obtained for each dose of test compound is used to calculate ED50 values by log-probit analysis.
Regarding `CC1(C)CC(=O)N(CCCCN2CCN(c3ncccn3)CC2)C(=O)C1` [gepirone, reference compound], the ED50 is 0.81 µmol/kg.
